Assay results taken from patent US20040191926A1 (priority 2001, published 2004).

Legend:
Yersinia PTP = target: T1, Yersinia PTP (Yersinia enterocolitica, UniProt P15273); assay: biochemical
T1 construct: made in house; host or cells: E. coli

TCPTP = target: T2, TCPTP (Homo sapiens, UniProt P17706); assay: PTPase activity assay with pNPP substrate; type: biochemical; conditions: pH 7.0, ionic strength 0.15 M, read-out: Inhibition Potency, Ki
T2 construct: catalytic domain (amino acid residues 1-288) of the human T cell PTPase (TCPTP); made in house
T2 sequence (P17706 1-288): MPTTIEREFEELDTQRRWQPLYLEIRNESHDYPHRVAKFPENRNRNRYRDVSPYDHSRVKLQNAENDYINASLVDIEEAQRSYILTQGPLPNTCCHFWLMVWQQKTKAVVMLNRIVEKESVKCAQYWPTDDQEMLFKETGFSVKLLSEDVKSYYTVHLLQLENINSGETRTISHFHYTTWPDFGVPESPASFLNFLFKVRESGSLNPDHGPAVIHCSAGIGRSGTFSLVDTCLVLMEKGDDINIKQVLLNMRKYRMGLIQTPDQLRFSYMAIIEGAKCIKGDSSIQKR

SHP2 = target: T3, SHP2 (Homo sapiens, UniProt Q06124); assay: Phosphatase panel, pNPP assay; type: biochemical; conditions: 2 mM pNPP; read-out: Inhibition Potency, IC50
T3 construct: the catalytic domains of SHP1 and SHP2 were expressed and purified as (His)6-fusion proteins; (His)6; made in house
T3 sequence (Q06124 247-517 limits assumed): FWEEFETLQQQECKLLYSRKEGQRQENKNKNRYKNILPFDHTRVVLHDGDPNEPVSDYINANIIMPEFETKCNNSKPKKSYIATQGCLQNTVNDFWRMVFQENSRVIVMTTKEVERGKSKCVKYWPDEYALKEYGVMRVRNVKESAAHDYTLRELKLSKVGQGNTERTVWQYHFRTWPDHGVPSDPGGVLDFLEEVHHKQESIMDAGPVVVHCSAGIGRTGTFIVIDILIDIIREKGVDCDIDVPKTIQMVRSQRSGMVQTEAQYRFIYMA

SHP1 = target: T4, SHP1 (Homo sapiens, UniProt P29350); assay: Phosphatase panel, pNPP assay; type: biochemical; conditions: 2 mM pNPP; read-out: Inhibition Potency, IC50
T4 construct: the catalytic domains of SHP1 and SHP2 were expressed and purified as (His)6-fusion proteins; (His)6; made in house
T4 sequence (P29350 244-515 limits assumed): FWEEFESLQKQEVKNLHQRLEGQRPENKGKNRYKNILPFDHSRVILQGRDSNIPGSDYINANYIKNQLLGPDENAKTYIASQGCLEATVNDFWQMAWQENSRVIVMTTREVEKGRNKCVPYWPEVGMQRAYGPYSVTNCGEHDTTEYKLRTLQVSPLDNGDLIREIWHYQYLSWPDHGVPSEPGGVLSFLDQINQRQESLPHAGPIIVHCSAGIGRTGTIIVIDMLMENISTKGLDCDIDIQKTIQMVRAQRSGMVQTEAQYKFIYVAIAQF

Cdc25A = target: T5, Cdc25A (Homo sapiens, UniProt P30304); assay: Phosphatase panel, pNPP assay; type: biochemical; conditions: at 10 μM
T5 sequence (P30304 1-524): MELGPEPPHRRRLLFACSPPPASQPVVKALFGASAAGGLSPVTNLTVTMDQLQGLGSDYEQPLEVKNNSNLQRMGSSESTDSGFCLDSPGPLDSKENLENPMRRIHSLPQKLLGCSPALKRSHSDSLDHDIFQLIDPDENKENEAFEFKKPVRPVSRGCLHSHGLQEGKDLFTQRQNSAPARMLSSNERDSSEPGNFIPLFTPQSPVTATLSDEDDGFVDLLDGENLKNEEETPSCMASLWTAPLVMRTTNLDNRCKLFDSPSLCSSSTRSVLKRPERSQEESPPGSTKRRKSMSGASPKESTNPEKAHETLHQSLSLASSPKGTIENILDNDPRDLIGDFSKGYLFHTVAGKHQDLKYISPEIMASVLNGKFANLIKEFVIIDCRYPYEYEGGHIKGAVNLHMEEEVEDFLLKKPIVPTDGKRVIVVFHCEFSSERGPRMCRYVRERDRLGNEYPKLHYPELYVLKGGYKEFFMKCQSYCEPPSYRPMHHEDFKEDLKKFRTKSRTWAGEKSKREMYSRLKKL

LAR = target: T6, LAR (Homo sapiens, UniProt P10586); assay: Phosphatase panel, pNPP assay; type: biochemical; conditions: 2 mM pNPP; read-out: Inhibition Potency, IC50
T6 construct: The intracellular fragment of PTPa, LAR and CD45 containing both of the PTPase domains was cleaved off the fusion protein; GST (cleaved yes); made in house
T6 sequence (P10586 1285-1907 limits assumed): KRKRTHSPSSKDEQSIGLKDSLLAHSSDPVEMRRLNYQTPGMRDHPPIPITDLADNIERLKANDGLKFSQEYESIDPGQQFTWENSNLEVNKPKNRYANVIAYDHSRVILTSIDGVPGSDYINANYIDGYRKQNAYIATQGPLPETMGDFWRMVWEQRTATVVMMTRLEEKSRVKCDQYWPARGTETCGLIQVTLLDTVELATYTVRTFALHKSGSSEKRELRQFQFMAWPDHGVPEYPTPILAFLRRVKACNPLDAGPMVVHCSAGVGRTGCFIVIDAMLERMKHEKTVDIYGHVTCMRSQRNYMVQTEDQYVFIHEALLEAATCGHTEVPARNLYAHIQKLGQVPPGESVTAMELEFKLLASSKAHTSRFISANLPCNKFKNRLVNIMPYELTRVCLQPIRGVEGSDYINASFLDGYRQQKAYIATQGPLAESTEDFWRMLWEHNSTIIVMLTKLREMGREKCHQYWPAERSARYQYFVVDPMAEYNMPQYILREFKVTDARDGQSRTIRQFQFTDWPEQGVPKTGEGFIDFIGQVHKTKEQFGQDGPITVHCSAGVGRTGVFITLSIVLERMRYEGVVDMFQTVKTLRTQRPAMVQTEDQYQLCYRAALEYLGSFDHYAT

HePTP = target: T7, HePTP (Homo sapiens, UniProt P35236); assay: Phosphatase panel, pNPP assay; type: biochemical; conditions: at 10 μM
T7 construct: (His)6; made in house
T7 sequence (P35236 1-360): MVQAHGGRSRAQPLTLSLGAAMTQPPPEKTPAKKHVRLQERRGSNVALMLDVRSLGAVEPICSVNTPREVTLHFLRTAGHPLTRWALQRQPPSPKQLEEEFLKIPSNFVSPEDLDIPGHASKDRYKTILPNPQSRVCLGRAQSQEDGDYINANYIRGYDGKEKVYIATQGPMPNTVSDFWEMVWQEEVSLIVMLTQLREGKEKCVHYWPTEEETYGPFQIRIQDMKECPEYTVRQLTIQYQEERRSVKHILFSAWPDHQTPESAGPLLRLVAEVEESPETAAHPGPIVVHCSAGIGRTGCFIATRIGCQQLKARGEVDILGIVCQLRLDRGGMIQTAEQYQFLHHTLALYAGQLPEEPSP

T1 sequence (P15273 whole entry): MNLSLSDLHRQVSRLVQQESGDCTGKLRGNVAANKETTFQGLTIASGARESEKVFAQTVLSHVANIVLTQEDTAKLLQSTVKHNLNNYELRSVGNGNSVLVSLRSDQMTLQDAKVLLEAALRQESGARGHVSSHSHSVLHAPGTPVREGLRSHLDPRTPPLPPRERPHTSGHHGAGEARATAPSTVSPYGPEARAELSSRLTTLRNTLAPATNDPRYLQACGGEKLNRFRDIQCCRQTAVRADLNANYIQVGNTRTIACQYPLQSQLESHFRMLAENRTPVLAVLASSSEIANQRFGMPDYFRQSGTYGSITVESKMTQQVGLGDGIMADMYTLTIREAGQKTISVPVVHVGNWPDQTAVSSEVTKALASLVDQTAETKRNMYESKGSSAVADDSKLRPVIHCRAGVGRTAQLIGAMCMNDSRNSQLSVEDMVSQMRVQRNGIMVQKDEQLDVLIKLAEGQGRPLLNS

Structure (SMILES): NC(=O)C(Cc1ccc(C(F)(F)P(=O)(O)O)cc1)NC(=O)C(CC(=O)O)NC(=O)Cc1ccc(C(F)(F)P(=O)(O)O)cc1 (stereo not shown) [Compound 40]
- IC50 (Yersinia PTP): 1.6 µM
- Ki (TCPTP): 0.026 µM
- IC50 (SHP2): 10 µM
- IC50 (SHP1): 11 µM
- Inhibition Potency (Cdc25A): No inhibition at 10 μM
- IC50 (LAR): 72 µM
- Inhibition Potency (HePTP): No inhibition at 10 μM
